Holding throughout (type): cell-based, human
For one assay, the target named is p21 minimal promoter. Briefly: Fluorometric β-lactamase activity assay in stable HeLa clone 1.17 (p21m-BLA). As to conditions: read-out: p21m-Bla EC50. As for the experimental part: All clones were screened for the presence of stably and functional integrated copies of the p21m-BLA reporter gene transcription cassette by performing a fluorometric β-lactamase activity assay after treatment with the HDAC inhibitor Apicidin at a concentration of 1 μM (saturating dose representing 100% of Bla gene activation, i.e., 100% of HDAC inhibition). A 100 μL aliquot of cells for each stable transformant in complete DMEM was plated into a well of a 96 well plate at about 36,000 cells per well for treatment with 1 μM Apicidin (saturating dose) and a 100 μL aliquot of cells was plated into a well of a 96 well plate at 24,000 cells per well for treatment with DMSO (vehicle control). […] After 4 hours, 25 μL of complete DMEM containing Apicidin at 5× final concentration or DMSO (5%) was added to each of the wells. The cells were then grown at 37° C., 5% CO2 for about 12 to 16 hours. Afterwards, the medium was removed and 100 μL of DMEM without serum and 25 μL of FRET labeled CCF2-AM Bla substrate diluted in the appropriate buffer according to the manufacturer recommendations were each added to the cells to give a final concentration of 1 μM CCF2-AM.

In another assay the test system is endogenous p21. Briefly: Induction of endogenous p21 in HeLa cells, immunoblot. The following applies: 13 hour treatment, immunoblot densitometry, read-out: Endogenous p2 EC50. On the procedure: (§1) Induction of endogenous p21 and acetylation of core histones (inhibition of HDAC activity) was as follows. Dose-response experiments were performed in HeLa cells with different classes of known HDAC inhibitors. […] An α-tubulin-specific antibody (Sigma, St. Louis, Mo.; catalog number: T9026) was used as an internal standard. Quantitative data were obtained by densitometric analysis of X-ray films and were normalized for the internal standard values.

Assay [1] concerns HDAC activity (acetylated histone H3). Briefly: Acetylation of core histones (inhibition of HDAC activity) in HeLa cells, acetylated histone H3 immunoblot. The following applies: Homo sapiens; HeLa cells, 13 hour treatment, immunoblot densitometry; read-out: AcH3 EC50. On the procedure:
as §1

SMILES strings stand for the structures. Where two headings read alike, the source gives them in different places.

For the molecule `Nc1ccccc1NC(=O)c1ccc(CNC(=O)OCc2cccnc2)cc1` [MS27-275], the EC50 amounted to 12 µM on p21 minimal promoter (clone 1.17, about 13 hours treatment, means of 3 to 4 independent experiments) and 22 µM in the assay with endogenous p21.
Turning to `CCCC(=O)[O-].[Na+]` [Na-butyrate, sodium butyrate], the 50% effective concentration (EC50) in the assay on p21 minimal promoter (Homo sapiens, HeLa, 13 h) was determined as 2000 µM.
For the molecule `O=C(CCCCCCC(=O)Nc1ccccc1)NO` [SAHA, suberoylanilide hydroxamic acid], the EC50 in assay [1] is 0.8 µM.

Source of the values: patent US20080057529A1, “Method for Identifying Histone Deacetylase Inhibitors” (priority 2003, published 2008).
